One experiment deals with U266 cell line. As to the kind of experiment: Cell killing by trypan blue staining, cells seeded at 10^6 per ml. It is filed as cell-based. To be noted: U266, agent added D-0 (LMB38 100 ng/ml), washed after D-3. The protocol: (§1) The BCMA-positive H929, U266, and RPMI cell lines were seeded at 10^6 per ml in 3 ml volume. LMB38 (BM24-Fab-LRggs) was added at 100 ng/ml at Day 0 (D-0). Cells (10 μl) were taken on different days and counted after trypan blue staining. After D-3, cells were washed and plated with media containing no toxin. For the 6 hour group, cells were washed after 6 h and plated in regular media containing no toxin. Cyclohexamide (Chxm) and 205 were used as positive controls; SS1-Fab-immunotoxin targeting mesothelin was used as a negative control (Ctrl).

The subject of another experiment is H929 cell line. Described as above. To be noted: H929, agent added D-0 (LMB38 100 ng/ml), washed after D-3. The experiment is classed as cell-based. As for the experimental part:
as §1

Another experiment relates to RPMI cell line. Described as above. It is filed as cell-based. To be noted: agent added D-0 (LMB38 100 ng/ml). The protocol: as §1
The subject of experiment [1] is TNFRs (BCMA, TACI or BAFFR). Nature of the experiment: Cross-reactivity with TNFR superfamily members by FACS (transfected 293T cells) and ELISA (TNFR-rFc). To be noted: mAb at 4 μg/ml. It is filed as binding, human. As for the experimental part:
For transfection experiments, 293T cells were seeded in 100 mm dishes (BD Biosciences, Bedford, Mass.) and grown at the subconfluent densities. pcDNA6/BCMA, pcDNA/TACI, or pcDNA6/BAFFR (6 μs) were transfected per dish by LIPOFECTAMINE LX and PLUS reagent according to the manufacturer's instructions. After 24 h, the transiently transfected cells were harvested and used for FACS screening. Cells (1-5×10^5) were incubated with serial dilution of hybridoma supernatants in FACS buffer (PBS containing 5% FBS and 0.1% sodium azide) for 1 h on ice. After washing twice with FACS buffer, the cells were incubated with 1:200 dilution of R-Phycoerythrin (PE)-labelled goat anti-mouse IgG F(ab′)2 (Jackson Immuno Research Laboratories, West Grove, Pa.) for 30 min. After washing twice, the cells were resuspended in 180 μl FACS buffer containing 10 nM TO-PRO-3 stain (Invitrogen), and the fluorescence associated with the live cells was measured using a BD ACCURI C6 flow cytometer (BD Biosciences). Positive hybridoma clones were transferred to 24-well pates. To exclude the false positive in the first screening, 24-well culture supernatants were re-assayed 2 days after transfer. […] The isotype of established monoclonal antibodies (MAb) was determined by a mouse MAb isotyping reagents (Sigma-Aldrich). Immunoglobulin concentrations in the culture supernatants were determined by a sandwich ELISA. […]
On the technique in general: Flow cytometry measures light scatter and fluorescence of single cells or particles in a stream.

The next experiment addresses T1, BCMA-rFc protein (Homo sapiens, UniProt Q02223).
T1 construct: the extracellular domain of human BCMA (residues 1-54) fused to the Fc region; made in house
T1 sequence (Q02223 1-54): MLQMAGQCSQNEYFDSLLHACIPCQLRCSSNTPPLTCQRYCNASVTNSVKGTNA
Nature of the experiment: Binding kinetics of MAbs by bio-layer interferometry (BLITZ). The following applies: for ka / kd: BCMA-rFc immobilized sensor. The protocol: The binding kinetics of MAbs to BCMA were measured by bio-layer interferometry using a BLITZ (ForteBio, Menlo Park, Calif.) instrument. According to the manufacturer's instructions, BCMA-rFc were immobilized on amine-reactive second-generation biosensors by amine coupling following the activation of the sensor surface with N-hydroxysuccinimide (NHS) and N-ethyl-N-(3-dimethylaminopropyl) carbodiimide hydrochloride (EDC). Serial dilutions of MAbs were run across sensor surface at five different concentration in PBS (pH 7.4). The sensorgram data set was globally fit using the built-in BLITZ software to determine association rate constant (Ka), dissociation rate constant (Kd), and affinity constant (KD).
The binding kinetics of these two anti-BCMA mAbs against BCMA-rFc protein were measured by bio-layer interferometry. Serial dilutions of anti-BCMA MAbs (20, 10, 5, 2.5, 1.25 μg/ml) were applied to the BCMA-rFc immobilized sensor and detected. Real-time biomolecular interaction analyses were performed with BLITZ software. […] The dissociation constants (KD) of both mAbs were less than 1×10^−12 (exceeded the detection limits).
(In BLI a coated tip is dipped into the sample, and binding shifts an interference pattern.)

In experiment [2] the target is T2, BCMA-expressing 293T cells (Homo sapiens, UniProt Q02223).
T2 construct: One vector encoded the full-length human BCMA; expressed in transfected cells; host or cells: 293T cells transiently transfected with pcDNA6/BCMA
T2 sequence (Q02223 1-184): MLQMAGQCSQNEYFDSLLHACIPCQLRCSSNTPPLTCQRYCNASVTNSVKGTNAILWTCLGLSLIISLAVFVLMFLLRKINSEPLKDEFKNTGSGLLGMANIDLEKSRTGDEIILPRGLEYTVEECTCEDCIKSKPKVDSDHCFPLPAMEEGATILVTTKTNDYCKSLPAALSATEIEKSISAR
As to the kind of experiment: FACS screening of binding to cell-surface BCMA. As for the experimental part: For transfection experiments, 293T cells were seeded in 100 mm dishes (BD Biosciences, Bedford, Mass.) and grown at the subconfluent densities. pcDNA6/BCMA, pcDNA/TACI, or pcDNA6/BAFFR (6 μs) were transfected per dish by LIPOFECTAMINE LX and PLUS reagent according to the manufacturer's instructions. After 24 h, the transiently transfected cells were harvested and used for FACS screening. Cells (1-5×10^5) were incubated with serial dilution of hybridoma supernatants in FACS buffer (PBS containing 5% FBS and 0.1% sodium azide) for 1 h on ice. […] After washing twice, the cells were resuspended in 180 μl FACS buffer containing 10 nM TO-PRO-3 stain (Invitrogen), and the fluorescence associated with the live cells was measured using a BD ACCURI C6 flow cytometer (BD Biosciences). […] The isotype of established monoclonal antibodies (MAb) was determined by a mouse MAb isotyping reagents (Sigma-Aldrich). Immunoglobulin concentrations in the culture supernatants were determined by a sandwich ELISA.
Mice were intraperitoneally immunized with BCMA-rFc fusion protein in adjuvant for the first immunization, and subsequently immunized 5 times with BCMA-rFc without adjuvant. High antibody titers (1:10,000) against the BCMA-expressing 293T cells were detected in the sera from mice immunized with BCMA-rFc. […]

Experiment [3] concerns the target T3, BCMA molecules on the surface of H929 cells (Homo sapiens, UniProt Q02223).
T3 construct: endogenous in cells; host or cells: H929 cells
T3 sequence (Q02223 1-184): T2 sequence (Q02223 1-184)
Nature of the experiment: Quantification of BCMA molecules on cell surface by flow cytometry with labeled LMB70. The following applies: 1h on ice. The experiment is classed as binding. The protocol:
To quantify the BCMA molecules on the surface of H929 cells, H929 cells were incubated with various concentrations of labeled LMB70 for 1h on ice in FLOW buffer. The cells were washed and analyzed by flow cytometry, together with AF647 quantification beads.

In another experiment the target is T4, BCMA (Homo sapiens, UniProt Q02223).
T4 sequence (Q02223 1-184): T2 sequence (Q02223 1-184)
As to the kind of experiment: Affinity measurement of AF647-labeled and unlabeled LMB70. The experiment is classed as binding. The following applies: after the first labeling. As for the experimental part: (§2) LMB70 was labeled with AF647 for measurement of uptake in vivo. LMB70 was labeled twice with AF647 using an AF647 labeling kit (Life Technologies). Labeling efficacy and activity were measured by WST-8 assay and affinity measurement.

The subject of the next experiment is H929 cells. As to the kind of experiment: WST-8 assay of AF647-labeled and unlabeled LMB70. To be noted: for IC50 (WST-8): in ng/mL. The experiment is classed as cell-based. The protocol:
as §2
Background: Formazan colour is commonly taken as a measure of viable cells.

As for `C[C@@H]1C[C@@H]([C@H](O)CC2CC(=O)NC(=O)C2)C(=O)[C@@H](C)C1` [Chxm, Cyclohexamide], the Percent dead in the experiment on U266 cell line (D-0) was 7%; in the experiment on U266 cell line (D-1), 25%; with U266 cell line (D-2), 50%; in the experiment on U266 cell line (D-3) it was 80%; in the experiment on U266 cell line (D-6), 100%; in the experiment on H929 cell line (D-0) it was 9%. The Percent dead with H929 cell line (D-1) amounted to 70%; with H929 cell line (D-2), 92%; in the experiment with H929 cell line (D-3) it was 100%; in the experiment with H929 cell line (D-6) it was 100%; with RPMI cell line (washed after D-3, D-0) it was 15%; in the experiment with RPMI cell line (washed after D-3, D-1), 75%. For the same molecule, the Percent dead in the experiment with RPMI cell line (washed after D-3, D-2) worked out at 100%; in the experiment with RPMI cell line (washed after D-3, D-3) it was 100%; in the experiment on RPMI cell line (washed after D-3, D-6), 100%.

B1: BM24: anti-BCMA mAb, IgG1 isotype; VH SEQ ID NO: 13, VL SEQ ID NO: 14 (antibody, V domains shown)
VH: MEVQLQQSGPELVKPGASVKMSCKASGNTLTNYVIHWMKQMPGQGLDWIGYILPYNDLTKYNEKFTGKATLTSDKSSSSAYMELNSLTSEDSAVYYCTRWDWDGFFDPWGQGTTLTVSSAS
VL: MDIVMTQSPLSLPVSLGDQASISCRSTQSLVHSNGNTHLHWYLQRPGQSPKLLIYSVSNRFSEVPDRFSASGSGTDFTLKISRVEAEDLGVYFCSQTSHIPYTFGGGTKLEIKR
modifications: IgG1
For B1, in experiment [1], the “cross-reactivity with other TNFR superfamily members” value is “specific to BCMA”. Further, in the experiment with BCMA-rFc protein, the “ka” value came out at 297000 M⁻¹ s⁻¹ and the “kd” value was less than 1e-07 s⁻¹. For the same molecule, in experiment [2], the “binding to BCMA antigen on the cell surface” value was “high affinity and specificity”.

B2: BM306: anti-BCMA mAb, IgG1 isotype; VH SEQ ID NO: 15, VL SEQ ID NO: 16 (antibody, V domains shown)
VH: MEVQLQQSGPELVKPGASVKISCKTSGYTFTEYTINWVKQSHGKSLEWIGDIYPDNYNIRYNQKFKGKATLTVDKSSSTAYMELRSLSSEDSAIYYCANHDFFVFWGQGTLVTVSAAK
VL: MDIQMTQATSSLSASLGDRVTINCRTSQDISNHLNWYQQKPDGTVKLLIYYTSRLQSGVPSRFSGSGSGTDYSLTISNLEQEDIGTYFCHQGNTLPPTFGGGTKLEIKR
modifications: IgG1
As for B2, in experiment [1], the “cross-reactivity with other TNFR superfamily members” value is reported as “specific to BCMA”. Also, in the experiment with BCMA-rFc protein, the “association rate constant (Ka) compared to BM24” value is recorded as “high”, the “ka” value came to 415000 M⁻¹ s⁻¹ and the “kd” value is less than 1e-07 s⁻¹. The “binding to BCMA antigen on the cell surface” value in experiment [2] is “high affinity and specificity”.

B3: labeled LMB70: LMB70 labeled with AF647 using an AF647 labeling kit (conjugate)
VH: EVQLQQSGPELVKPGASVKISCKTSGYTFTEYTINWVKQSHGKSLEWIGDIYPDNYNIRYNQKFKGKATLTVDKSSSTAYMELRSLSSEDSAIYYCANHDFFVFWGQGTLVTVSA
VL: DIQMTQATSSLSASLGDRVTINCRTSQDISNHLNWYQQKPDGTVKLLIYYTSRLQSGVPSRFSGSGSGTDYSLTISNLEQEDIGTYFCHQGNTLPPTFGGGTKLEIK
modifications: left off: another chain or arm of the molecule; a dimerising Fc or GST; small tags and cut ends
notes: LMB70 labeled with AF647 using an AF647 labeling kit
Consider B3, for which the Bmax in [3] (first labeling) is recorded as 150,000 molecules per cell; in experiment [3] (second labeling), 230,000 molecules per cell. Besides, the “Bmax (affinity measurement)” value with BCMA is listed as 1131. Also, the “IC50 (WST-8)” value stood at 6.082 in the experiment on H929 cells (after the first labeling) and 10.69 with H929 cells (after the second labeling). In addition, the “fold less active than the unlabeled toxins” value in the experiment on H929 cells (labeled versus unlabeled) is listed as “about 4 fold”.

For the origin of these results see patent US10925969B2, “Anti-BCMA polypeptides and proteins” (priority 2015, dated 2021).
